The values that follow come from patent publication US20250281499A1, “FUSED AMINO PYRIMIDINE COMPOUNDS FOR TREATMENT OF NEUROPATHIC AND NEURO-INFLAMMATORY PAIN” (Ovid Therapeutics Inc., priority 2024, published 2025).

The assay deals with T1, KCC2 (Homo sapiens, UniProt Q9H2X9).
T1 construct: expressed in transfected cells; host or cells: HEK-293 (ATCC CRL-1573), Lipofectamine 2000, used 48-72 h after transfection
T1 sequence (Q9H2X9 1-1116 isoform Q9H2X9-2): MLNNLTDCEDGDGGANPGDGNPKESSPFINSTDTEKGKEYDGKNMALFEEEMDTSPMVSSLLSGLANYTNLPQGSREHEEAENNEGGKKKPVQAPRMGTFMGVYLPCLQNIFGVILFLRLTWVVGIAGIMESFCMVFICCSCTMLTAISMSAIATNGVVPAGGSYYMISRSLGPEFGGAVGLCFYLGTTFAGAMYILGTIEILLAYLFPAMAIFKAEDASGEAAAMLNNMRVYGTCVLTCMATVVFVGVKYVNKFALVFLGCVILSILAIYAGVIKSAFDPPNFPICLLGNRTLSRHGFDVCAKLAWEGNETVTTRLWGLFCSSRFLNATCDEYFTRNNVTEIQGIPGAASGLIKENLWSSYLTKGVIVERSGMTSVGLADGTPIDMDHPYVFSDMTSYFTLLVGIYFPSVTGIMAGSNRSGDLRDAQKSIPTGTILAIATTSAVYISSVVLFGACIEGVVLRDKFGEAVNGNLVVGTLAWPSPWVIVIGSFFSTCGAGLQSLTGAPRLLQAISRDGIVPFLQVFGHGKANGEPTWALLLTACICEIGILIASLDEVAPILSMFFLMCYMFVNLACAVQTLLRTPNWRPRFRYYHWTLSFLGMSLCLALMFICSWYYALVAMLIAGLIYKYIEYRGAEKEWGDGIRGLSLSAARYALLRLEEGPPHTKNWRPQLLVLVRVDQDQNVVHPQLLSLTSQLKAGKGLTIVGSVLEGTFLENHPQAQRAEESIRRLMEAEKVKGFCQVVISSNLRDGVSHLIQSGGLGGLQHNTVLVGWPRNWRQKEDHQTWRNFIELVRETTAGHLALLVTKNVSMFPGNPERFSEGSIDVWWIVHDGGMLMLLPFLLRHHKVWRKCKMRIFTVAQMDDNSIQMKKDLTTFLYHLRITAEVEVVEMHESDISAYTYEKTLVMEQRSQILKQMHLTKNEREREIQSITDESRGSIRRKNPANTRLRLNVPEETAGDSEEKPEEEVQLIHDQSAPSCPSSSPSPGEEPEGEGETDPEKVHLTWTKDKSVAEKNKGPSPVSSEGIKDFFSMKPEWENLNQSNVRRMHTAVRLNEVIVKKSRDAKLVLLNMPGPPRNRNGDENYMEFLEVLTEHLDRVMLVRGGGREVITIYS
Put plainly: Cell surface biotinylation of KCC2 in HEK-293 cells. The class given is cell-based. Conditions: 15 min. As to the method: Cell Culture and biotinylation. HEK-293 cells were purchased from ATCC (CRL-1573) and transfected with human KCC2 and GFP expression plasmids using Lipofectamine 2000. Cells were utilized for experimentation 48-72 h following transfection. Cells were biotinylated at 4° C. using NHS-Biotin. Following lysis and purification on immobilized avidin beads, cell surface and total fractions were subject to immunoblotting as outlined previously (Conway et al., 2017, supra).
The reliability of the biotinylation procedure was assessed via immunoblotting with antibodies against the cytosolic protein actin. Actin was present in the total lysates but was absent from the surface fractions (FIG. 2C).

Take `C[C@@H]1CN(c2nc3c(c(Nc4ccc(C5CCCCC5)cc4)n2)COC3)CCO1` [Compound A, (R)—N-(4-cyclohexylphenyl)-2-(2-methylmorpholino)-5,7-dihydrofuro[3,4-d]pyrimidin-4-amine]: the “level of KCC2 on the plasma membrane (surface/total)” value is, setting by setting: (0.3 μM) 94.5 ±8.4 % of control; (3 μM) 104.7±8.4 % of control.
